Measured values published in patent publication US12637435B2, “Nitrogen-containing heterocyclic compound or salt thereof, use thereof, and intermediate thereof” (FUJIFILM Corporation, priority 2020, dated 2026).

Columns and labels:
[1] = system: human myeloid leukemia cell line HL60; assay: Cell growth test, HL60 (CellTiter-Glo); format: cell-based; settings: HL-60, 72 h, HL60 cells, 3 days, CellTiter-Glo luminescence, read-out: Cell growth inhibitory effect (GI50)
Description: The cell growth test was carried out using the human myeloid leukemia cell line HL60 (available from ATCC, CRL-240). As a culture medium of HL60 cells, RPMI 1640 (available from FUJIFILM Wako Pure Chemical Corporation, 189-02025) supplemented with 10% fetal bovine serum (available from Thermo Fisher Scientific, Inc., 10437-028), and 1% penicillin-streptomycin (10,000 U/mL, available from Thermo Fisher Scientific, Inc., 15140-122) was used. HL60 cells were seeded on a 384-well plate (available from Corning Inc., 4588) at a cell density of 1×10^3 cells/20 μL/well. After culturing overnight, 5 μL of the test compound having a predetermined concentration was added, and 3 days later, 25 μL of CellTiter-Glo (registered trademark) Luminescent Cell Viability Assay (available from Promega Corporation, G7573) was added, and then the amount of luminescence was measured using an EnVision plate reader (available from PerkinElmer, Inc.). Since the amount of luminescence is proportional to the intracellular concentration of adenosine triphosphate (ATP), the amount of luminescence was used as an indicator of the number of viable cells. The growth inhibitory concentration for each test compound concentration was calculated by the following expression.
(§1) The growth inhibition rate at each test compound concentration was determined, and the 50% growth inhibitory concentration [GI50 (nmol/L)] was calculated using XLfit. Growth inhibition rate (%)=(amount of luminescence in test compound-added well)/(amount of luminescence in DMSO-added well)×100
The abbreviations in the table have the following meanings. • A: GI50 value<100 nmol/L • B: 100 nmol/L≤GI50 value<1,000 nmol/L • C: 1,000 nmol/L≤GI50 value

recombinant human DHODH = biological target: T1, recombinant human DHODH (Homo sapiens, UniProt Q02127); assay: DHODH enzyme reaction inhibition test (DCIP-coupled assay); format: biochemical; settings: recombinant human DHODH 0.175 μg/mL, DCIP absorbance 600 nm, 50 minutes, pH 8.0; read-out: Enzyme reaction inhibitory effect (IC50)
T1 construct: DHODH, 31-395aa, Human, His tag, E. coli, ATGP1615; His tag; purchased ATGen Co. Ltd. ATGP1615; host or cells: E. coli
T1 sequence (Q02127 31-395): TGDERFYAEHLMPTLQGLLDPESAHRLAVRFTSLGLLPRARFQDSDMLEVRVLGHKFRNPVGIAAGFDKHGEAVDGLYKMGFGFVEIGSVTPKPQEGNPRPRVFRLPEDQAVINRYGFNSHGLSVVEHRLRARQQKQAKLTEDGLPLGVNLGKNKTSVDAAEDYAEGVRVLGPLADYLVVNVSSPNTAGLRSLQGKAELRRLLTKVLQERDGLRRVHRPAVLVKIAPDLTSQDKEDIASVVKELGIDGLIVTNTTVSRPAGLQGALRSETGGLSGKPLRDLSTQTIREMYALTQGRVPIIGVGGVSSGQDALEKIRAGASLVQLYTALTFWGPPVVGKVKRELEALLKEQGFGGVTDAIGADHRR
Description: The DHODH enzyme assay was carried out with reference to “Benjamin Bader, Wolfgang Knecht, Markus Fries, and Monika Loffler, Expression, Purification, and Characterization of Histidine-Tagged Rat and Human Flavoenzyme Dihydroorotate Dehydrogenase, Protein Expression and Purification, 1998, 13, 414-422.”
The DHODH activity was evaluated using an enzyme assay system that is coupled with an assay in which a blue coloring agent 2,6-dichlorophenolindophenol (DCIP, available from MP Biomedicals, LLC, MP150118) is quenched. Purified recombinant human DHODH (DHODH, 31-395aa, Human, His tag, E. coli, ATGP1615) was purchased from ATGen Co. Ltd. The enzyme assay was carried out in a 384-well plate using a buffer solution containing 100 mmol/L Hepes (available from Dojindo Laboratories, 342-01375), 400 mmol/L NaCl (available from FUJIFILM Wako Pure Chemical Corporation, 191-01665), 10% Glycerol (available from FUJIFILM Wako Pure Chemical Corporation, 075-00616), 0.05% Triton X-100 (available from Sigma-Aldrich Co., LLC, T8787-100ML), 0.2 mmol/L Ubiquinone-10 (available from FUJIFILM Wako Pure Chemical Corporation, 216-00761), 0.1 mmol/L DHO (L-dihydroorotic acid, available from Sigma-Aldrich Co., LLC, D7128), 0.5% DMSO (dimethylsulfoxide, available from FUJIFILM Wako Pure Chemical Corporation, 047-29353), 0.175 μg/mL DHODH, and 0.12 mmol/L DCIP and having a pH adjusted to 8.0 by adding 5 mol/L potassium hydroxide (available from FUJIFILM Wako Pure Chemical Corporation, 168-21815). A test compound with a predetermined concentration was added using Biomek NX (available from Beckman Coulter Inc.), and the enzyme reaction was started by adding the substrate. The enzyme activity was assessed by measuring the decrease in DCIP absorbance (600 nm) for 50 minutes using an EnVision plate-reading spectrophotometer (available from PerkinElmer, Inc.).
as §1, with “enzyme reaction” for “growth”, “enzyme reaction inhibition” for “growth inhibitory”, “[IC50” for “[GI50”, “Enzyme reaction” for “Growth”
The abbreviations in the table have the following meanings. • A: IC50 value<10 nmol/L • B: 10 nmol/L≤IC50 value<100 nmol/L • C: 100 nmol/L≤IC50 value

Structure (SMILES) | GI50 [1] | IC50 (recombinant human DHODH)
NC(=O)c1nc(C2CC2)cnc1Nc1cccc(C2=CCOCC2)c1OCC(F)(F)F [Example 1-1, 6-cyclopropyl-3-((3-(3,6-dihydro-2H-pyran-4-yl)-2-(2,2,2-trifluoroethoxy)phenyl)amino)pyrazine-2-carboxamide] | < 100 nM | 10 to 100 nM
OCc1nc(C2CC2)cnc1Nc1cccc(C2=CCOCC2)c1OCC(F)(F)F [Example 1-3] | 100 to 1000 nM | 10 to 100 nM
Cc1ccc(-c2cccc(Nc3ncc(C4CC4)nc3C(=O)O)c2OCC(F)(F)F)c(C)n1 [Example 1-4, 6-cyclopropyl-3-((3-(2,6-dimethylpyridin-3-yl)-2-(2,2,2-trifluoroethoxy)phenyl)amino)pyrazine-2-carboxylic acid] | 100 to 1000 nM | 10 to 100 nM
Cc1cc(C#N)ccc1-c1cccc(Nc2ncc(C3CC3)nc2C(=O)O)c1OCC(F)(F)F [Example 1-5, 3-((4′-cyano-2′-methyl-2-(2,2,2-trifluoroethoxy)-[1,1′-biphenyl]-3-yl)amino)-6-cyclopropylpyrazine-2-carboxylic acid] | < 100 nM | < 10 nM
FC(F)(F)COc1c(Nc2ncc(C3CC3)nc2-c2nnn[nH]2)cccc1C1=CCOCC1 [Example 1-6] | < 100 nM | < 10 nM
O=c1[nH]c(-c2nc(C3CC3)cnc2Nc2cccc(C3=CCOCC3)c2OCC(F)(F)F)no1 [Example 1-7, 3-(6-cyclopropyl-3-((3-(3,6-dihydro-2H-pyran-4-yl)-2-(2,2,2-trifluoroethoxy)phenyl)amino)pyrazin-2-yl)-1,2,4-oxadiazol-5(4H)-one] | 100 to 1000 nM | < 10 nM
NNC(=O)c1nc(C2CC2)cnc1Nc1cccc(C2=CCOCC2)c1OCC(F)(F)F [Example 1-8, 6-cyclopropyl-3-((3-(3,6-dihydro-2H-pyran-4-yl)-2-(2,2,2-trifluoroethoxy)phenyl)amino)pyrazine-2-carbohydrazide] | 100 to 1000 nM | 10 to 100 nM
O=c1[nH]nc(-c2nc(C3CC3)cnc2Nc2cccc(C3=CCOCC3)c2OCC(F)(F)F)o1 [Example 1-9, 5-(6-cyclopropyl-3-((3-(3,6-dihydro-2H-pyran-4-yl)-2-(2,2,2-trifluoroethoxy)phenyl)amino)pyrazin-2-yl)-1,3,4-oxadiazol-2(3H)-one] | 100 to 1000 nM | 10 to 100 nM
CC(=O)c1nc(C2CC2)cnc1Nc1cccc(C2=CCOCC2)c1OCC(F)(F)F [Example 1-10, 1-(6-cyclopropyl-3-((3-(3,6-dihydro-2H-pyran-4-yl)-2-(2,2,2-trifluoroethoxy)phenyl)amino)pyrazin-2-yl)ethan-1-one] | 100 to 1000 nM | 10 to 100 nM
CC(O)c1nc(C2CC2)cnc1Nc1cccc(C2=CCOCC2)c1OCC(F)(F)F (stereo not drawn) [Example 1-11, 1-(6-cyclopropyl-3-((3-(3,6-dihydro-2-H-pyran-4-yl)-2-(2,2,2-trifluoroethoxy)phenyl)amino)pyrazin-2-yl)ethan-1-ol] | ≥ 1000 nM | ≥ 100 nM
CNNC(=O)c1nc(C2CC2)cnc1Nc1cccc(C2=CCOCC2)c1OCC(F)(F)F [Example 1-12, 6-cyclopropyl-3-((3-(3,6-dihydro-2H-pyran-4-yl)-2-(2,2,2-trifluoroethoxy)phenyl)amino)-N′-methylpyrazine-2-carbohydrazide] | 100 to 1000 nM | 10 to 100 nM
CN(C)NC(=O)c1nc(C2CC2)cnc1Nc1cccc(C2=CCOCC2)c1OCC(F)(F)F [Example 1-13, 6-cyclopropyl-3-((3-(3,6-dihydro-2H-pyran-4-yl)-2-(2,2,2-trifluoroethoxy)phenyl)amino)-N,N-dimethylpyrazine-2-carbohydrazide] | ≥ 1000 nM | ≥ 100 nM
O=Cc1nc(C2CC2)cnc1Nc1cccc(C2=CCOCC2)c1OCC(F)(F)F [Example 1-14, 6-cyclopropyl-3-((3-(3,6-dihydro-2H-pyran-4-yl)-2-(2,2,2-trifluoroethoxy)phenyl)amino)pyrazine-2-carbaldehyde] | ≥ 1000 nM | ≥ 100 nM
CS(=O)(=O)NCc1nc(C2CC2)cnc1Nc1cccc(C2=CCOCC2)c1OCC(F)(F)F [Example 1-15, N-((6-cyclopropyl-3-((3-(3,6-dihydro-2H-pyran-4-yl)-2-(2,2,2-trifluoroethoxy)phenyl)amino)pyrazin-2-yl)methyl)methanesulfonamide] | ≥ 1000 nM | ≥ 100 nM
N#CNCc1nc(C2CC2)cnc1Nc1cccc(C2=CCOCC2)c1OCC(F)(F)F [Example 1-16, N-((6-cyclopropyl-3-((3-(3,6-dihydro-2H-pyran-4-yl)-2-(2,2,2-trifluoroethoxy)phenyl)amino)pyrazin-2-yl)methyl)cyanamide] | 100 to 1000 nM | 10 to 100 nM
NCc1nc(C2CC2)cnc1Nc1cccc(C2=CCOCC2)c1OCC(F)(F)F [Example 1-17, 3-(aminomethyl)-5-cyclopropyl-N-(3-(3,6-dihydro-2H-pyran-4-yl)-2-(2,2,2-trifluoroethoxy)phenyl)pyrazine-2-amine] | ≥ 1000 nM | ≥ 100 nM
C[C@H](Oc1c(Nc2ccc(C3CC3)cc2C(=O)O)ccnc1C1=CCOCC1)C(F)(F)F [Example 1-18] | < 100 nM | < 10 nM
O=C(O)c1cc(C2CC2)ccc1Nc1cncc(C2=CCOCC2)c1OCC(F)(F)F [Example 2-1] | 100 to 1000 nM | < 10 nM
O=C(O)c1cc(C2CC2)cnc1Nc1cc(F)cc(C2CCOCC2)c1OC(F)F [Example 2-3] | < 100 nM | < 10 nM
N#Cc1ccc(-c2cccc(Nc3ncc(C4CC4)nc3C(=O)O)c2OCC(F)(F)F)cc1 [Example 2-4] | < 100 nM | < 10 nM
O=C(O)c1cc(C2CC2)cnc1Nc1cccc(C2=CCOCC2)c1OCC(F)(F)F [Example 2-5] | < 100 nM | < 10 nM
C[C@H](Oc1c(Nc2ccc(C3CC3)cc2C(=O)O)cncc1C1=CCOCC1)C(F)(F)F [Example 2-6] | < 100 nM | < 10 nM
N#Cc1ccc(-c2cccc(Nc3ncc(C4CC4)cc3C(=O)O)c2OCC(F)(F)F)cc1 [Example 2-7] | < 100 nM | < 10 nM
O=C(O)c1cc(C2CC2)cnc1Nc1cc(F)cc(C2CCOCC2)c1OCC(F)(F)F [Example 2-8] | < 100 nM | < 10 nM
N#Cc1cccc(-c2cccc(Nc3ncc(C4CC4)nc3C(=O)O)c2OCC(F)(F)F)c1 [Example 2-9] | < 100 nM | < 10 nM
CCc1c(Nc2ncc(C3CC3)cc2C(=O)O)cccc1C1CCOCC1 [Example 2-10] | < 100 nM | < 10 nM
N#Cc1ccc(-c2cccc(Nc3ncc(C4CC4)nc3C(=O)O)c2OC(F)F)cc1 [Example 2-11] | 100 to 1000 nM | < 10 nM
N#Cc1ccc(-c2cc(F)cc(Nc3ncc(C4CC4)nc3C(=O)O)c2OC(F)F)cc1 [Example 2-12] | 100 to 1000 nM | 10 to 100 nM
O=C(O)c1nc(C2CC2)cnc1Nc1cccc(-c2ccc(F)cc2)c1OCC(F)(F)F [Example 2-13] | < 100 nM | < 10 nM
CCOc1c(C2=CCOCC2)ccc(F)c1Nc1ncc(C2CC2)cc1C(=O)O [Example 2-14] | 100 to 1000 nM | < 10 nM
